Measured values published in the supplement of paper PMC10307832.

What follows are cell lines tested with CC(C)=CC[C@@H](O)C1=CC(=O)c2c(O)ccc(O)c2C1=O [Shikonin] + CS(=O)(=O)CCNCc1ccc(-c2ccc3ncnc(Nc4ccc(OCc5cccc(F)c5)c(Cl)c4)c3c2)o1 [Lapatinib] (partner 2 µM) (assay: relative viability (nuclei count vs DMSO), 5 days (fraction); higher = more cells survive). Settings: first compound 0.01 µM.
In short: (§1)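 Lung cancer cell lines were pin-tool dosed in 1536-well plates on the day after seeding, with either a lone drug or a fixed anchor-drug dose plus five library-drug doses (not always all listed) in √10 steps. Nuclei were counted on 4× images after 5 days. Relative viability is the ratio of treated-well to vehicle-well nuclei counts, with each value a median of duplicate plates.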

Compared with PC-14, NCI-H1650 is higher in relative viability: 0.334 for the first, 0.758 for the second.

Compared with EBC-1, NCI-H1703 is higher in relative viability: 0.19 for the first, 1.15 for the second.

Compared with NCI-H2009, PC-3 [JPC-3] is lower in relative viability: 1.02 for the first, 0.443 for the second.

First: NCI-H647
Second: NCI-H2228
The relative viability of the first is higher: 1.16 for the first, 0.913 for the second.

Going from EMC-BAC-2 to NCI-H2087, the relative viability rises from 0.939 to 1.03.

Going from Calu-6 to HCC-366, the relative viability rises from 1.16 to 1.34.

Going from NCI-H1666 to NCI-H650, the relative viability rises from 0.585 to 1.01.

Compared with LK-2, NCI-H2126 is lower in relative viability: 1.26 for the first, 0.779 for the second.

Compared with SK-MES-1, H3255 is lower in relative viability: 0.543 for the first, 0.206 for the second.

Going from COR-L23 to COR-L 105, the relative viability falls from 1.03 to 0.339.

First: IA-LM
Second: LOU-NH91
The relative viability of the first is higher: 1.11 for the first, 0.802 for the second.

Going from NCI-H2170 to NCI-H3122, the relative viability rises from 0.257 to 0.973.

Compared with HOP-62, HCC-44 is higher in relative viability: 1.04 for the first, 1.07 for the second.

Compared with A549, LU99A is higher in relative viability: 1.08 for the first, 1.1 for the second.

Compared with BEN, HARA is higher in relative viability: 0.654 for the first, 0.888 for the second.

First: HCC-78
Second: LCLC-97TM1
The relative viability of the first is lower: 0.778 for the first, 1.28 for the second.

First: NCI-H1395
Second: NCI-H1299
The relative viability of the first is lower: 0.924 for the first, 1.01 for the second.

Work on NCI-H1793 yielded a relative viability of 0.637.

Same assay, conditions: first compound 0.1 µM

Going from PC-14 to NCI-H1650, the relative viability rises from 0.342 to 0.819.

Going from EBC-1 to NCI-H1703, the relative viability rises from 0.191 to 1.33.

Compared with NCI-H2009, NCI-H1993 is lower in relative viability: 0.894 for the first, 0.806 for the second.

Going from NCI-H520 to PC-3 [JPC-3], the relative viability falls from 0.813 to 0.512.

Going from NCI-H647 to NCI-H2228, the relative viability falls from 1.17 to 0.902.

Going from EMC-BAC-2 to NCI-H2087, the relative viability rises from 0.999 to 1.38.

Going from Calu-6 to HCC-366, the relative viability falls from 1.34 to 1.24.

Compared with NCI-H1666, LK-2 is higher in relative viability: 0.779 for the first, 1.06 for the second.

Compared with NCI-H2126, SK-MES-1 is lower in relative viability: 0.795 for the first, 0.509 for the second.

First: H3255
Second: COR-L23
The relative viability of the first is lower: 0.258 for the first, 1.07 for the second.

Going from COR-L 105 to LOU-NH91, the relative viability rises from 0.346 to 0.839.

Going from NCI-H2170 to NCI-H3122, the relative viability rises from 0.271 to 1.13.

Going from HOP-62 to HCC-44, the relative viability falls from 1.13 to 1.07.

Going from A549 to LU99A, the relative viability rises from 1.09 to 1.32.

Going from BEN to HARA, the relative viability rises from 0.897 to 0.903.

First: HCC-78
Second: LCLC-97TM1
The relative viability of the first is higher: 1.07 for the first, 0.998 for the second.

Compared with NCI-H1395, NCI-H1299 is lower in relative viability: 1.26 for the first, 1.09 for the second.

For NCI-H1793, the relative viability was 0.786.

Same assay, conditions: first compound 0.3162 µM

Compared with PC-14, NCI-H1650 is higher in relative viability: 0.329 for the first, 0.684 for the second.

Compared with EBC-1, NCI-H1703 is higher in relative viability: 0.213 for the first, 1.15 for the second.

First: NCI-H2009
Second: NCI-H1993
The relative viability of the first is higher: 0.923 for the first, 0.711 for the second.

Going from NCI-H520 to PC-3 [JPC-3], the relative viability falls from 0.884 to 0.479.

First: NCI-H647
Second: NCI-H2228
The relative viability of the first is higher: 1.35 for the first, 0.921 for the second.

Going from EMC-BAC-2 to NCI-H2087, the relative viability rises from 0.941 to 1.15.

Calu-6 and HCC-366 are the same in relative viability: 1.11 for the first, 1.11 for the second.

Compared with NCI-H1666, NCI-H650 is higher in relative viability: 0.657 for the first, 0.947 for the second.

First: LK-2
Second: NCI-H2126
The relative viability of the first is higher: 1.22 for the first, 0.81 for the second.

Compared with SK-MES-1, H3255 is lower in relative viability: 0.514 for the first, 0.215 for the second.

First: COR-L23
Second: COR-L 105
The relative viability of the first is higher: 1.13 for the first, 0.318 for the second.

Going from IA-LM to LOU-NH91, the relative viability rises from 0.81 to 0.811.

Going from NCI-H2170 to NCI-H3122, the relative viability rises from 0.276 to 1.

Going from HOP-62 to HCC-44, the relative viability rises from 0.908 to 1.05.

First: A549
Second: LU99A
The relative viability of the first is higher: 1.03 for the first, 0.881 for the second.

First: BEN
Second: HARA
The relative viability of the first is lower: 0.776 for the first, 0.853 for the second.

Going from HCC-78 to LCLC-97TM1, the relative viability rises from 0.705 to 1.09.

First: NCI-H1395
Second: NCI-H1299
The relative viability of the first is lower: 0.923 for the first, 0.986 for the second.

For NCI-H1793, the relative viability was 0.742.

Same assay, conditions: first compound 1 µM

First: PC-14
Second: NCI-H1650
The relative viability of the first is lower: 0.326 for the first, 0.757 for the second.

Going from EBC-1 to NCI-H1703, the relative viability rises from 0.217 to 0.647.

Going from NCI-H2009 to NCI-H1993, the relative viability rises from 0.498 to 0.921.

First: NCI-H520
Second: PC-3 [JPC-3]
The relative viability of the first is higher: 0.923 for the first, 0.543 for the second.

Going from NCI-H647 to NCI-H2228, the relative viability falls from 0.88 to 0.83.

First: EMC-BAC-2
Second: NCI-H2087
The relative viability of the first is lower: 0.923 for the first, 0.954 for the second.

Compared with Calu-6, HCC-366 is lower in relative viability: 1.16 for the first, 1.03 for the second.

Compared with NCI-H1666, NCI-H650 is higher in relative viability: 0.853 for the first, 1.16 for the second.

Going from LK-2 to NCI-H2126, the relative viability falls from 1.06 to 0.824.

First: SK-MES-1
Second: H3255
The relative viability of the first is higher: 0.463 for the first, 0.271 for the second.

First: COR-L23
Second: COR-L 105
The relative viability of the first is higher: 1.05 for the first, 0.36 for the second.

First: IA-LM
Second: LOU-NH91
The relative viability of the first is lower: 0.679 for the first, 0.823 for the second.

Going from NCI-H2170 to NCI-H3122, the relative viability rises from 0.266 to 1.04.

Compared with HOP-62, HCC-44 is higher in relative viability: 1.03 for the first, 1.09 for the second.

Going from A549 to LU99A, the relative viability falls from 1.1 to 0.891.

Going from BEN to HARA, the relative viability rises from 0.768 to 0.77.

Going from HCC-78 to LCLC-97TM1, the relative viability falls from 1.06 to 0.921.

Compared with NCI-H1395, NCI-H1299 is higher in relative viability: 0.895 for the first, 0.936 for the second.

Cell Line NCI-H1793 has a relative viability of 0.648.

Each cell line was assayed with CC(C)N(CCCNC(=O)Nc1ccc(C(C)(C)C)cc1)C[C@H]1O[C@@H](n2ccc3c(N)ncnc32)[C@H](O)[C@@H]1O + COc1cccc2cc(-c3nc([C@H]4CC[C@H](C(=O)O)CC4)n4ncnc(N)c34)[nH]c12 [OSI-027] (partner 0.5 µM) in the same assay as above. Settings: first compound 0.08 µM.
In short: as §1

First: NCI-H2342
Second: NCI-H1623
The relative viability of the first is higher: 0.736 for the first, 0.446 for the second.

Going from PC-14 to NCI-H1650, the relative viability falls from 0.826 to 0.567.

First: NCI-H2009
Second: NCI-H1993
The relative viability of the first is higher: 0.641 for the first, 0.521 for the second.

Going from NCI-H520 to PC-3 [JPC-3], the relative viability rises from 0.181 to 0.801.

First: LCLC-103H
Second: NCI-H647
The relative viability of the first is lower: 0.447 for the first, 0.511 for the second.

Compared with NCI-H2228, EMC-BAC-2 is lower in relative viability: 0.614 for the first, 0.384 for the second.
